This data set is described as follows: Breakdown of active substance during preparation of wax premix by the melt method. To be noted: comparative Example C, montan wax melt at 110° C. In kind it is physicochemical. The procedure: Preparation of a wax premix by the melt method.
32 parts by weight of montan wax in sheet form are heated, in a mixer, at 110° C. to give a melt. To this melt there are added
15 parts by weight of cyclosulfamuron in the form of particles with an average diameter of 5μ with stirring at 110° C. The resulting suspension is stirred at high speed for 10 minutes at 110° C. and then treated portionwise with
26.5 parts by weight of highly-disperse silica while stirring is continued at full mixer speed. The resulting flowable powder is cooled to room temperature with stirring and with addition of
26.5 parts by weight of talc.
This gives a wax premix consisting of agglomerated particles. Approximately 10 percent by weight of the cyclosulfamuron present are broken down.

Structures are written as SMILES.

For `COc1cc(OC)nc(NC(=O)NS(=O)(=O)Nc2ccccc2C(=O)C2CC2)n1` [cyclosulfamuron], the “cyclosulfamuron present broken down” value is “Approximately 10 percent by weight”.

The record behind these values is patent publication US20030108584A1, “Method for producing wax premixes” (priority 2000, published 2003).
